Measured values from the supplement of paper PMC8617591.

Experiments:
[1] = tested on: Mycobacterium tuberculosis Erdman (autoluminescent); test: FIC90 (Loewe) at 90% inhibition (log2); higher = more antagonistic
Method: (§1)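 DiaMOND equipotent two-drug combination dose responses against autoluminescent M. tuberculosis Erdman in 8 in vitro models. Read-out is OD600, or luminescence for the intracellular and dormancy models, normalised to untreated wells. Hill-fit Einf, AUC25 and GRinf are potency metrics; FIC50 and FIC90 are Loewe-additivity fractional inhibitory concentrations, given as log2 (negative = synergy). Replicates are averaged.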

[2] = tested on: Mycobacterium tuberculosis Erdman (autoluminescent); test: GRinf, maximum normalised growth rate inhibition (unitless (-1 to 1)); higher = less effect (negative = killing)
Method: as §1

[3] = tested on: Mycobacterium tuberculosis Erdman (autoluminescent); test: FIC50 (Loewe) at 50% inhibition (log2); higher = more antagonistic
Method: as §1

[4] = tested on: Mycobacterium tuberculosis Erdman (autoluminescent); test: Einf, fitted maximum growth inhibition of combination (fraction); higher = stronger maximal inhibition
Method: as §1

[5] = tested on: Mycobacterium tuberculosis Erdman (autoluminescent); test: AUC25, normalised area under dose response up to IC25 (fraction (0-1)); higher = more potent at low dose
Method: as §1

[6] = tested on: Mycobacterium tuberculosis Erdman (autoluminescent); test: as above; remark: listed apart in the source
Method: (§2)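 DiaMOND dose responses (10 doses, 1.5- or 2-fold spacing, equipotent around IC90) of autoluminescent M. tuberculosis Erdman in 8 in vitro models. Read-out is OD600, or luminescence for the intracellular (J774) and dormancy models, background-subtracted and normalised to untreated wells. A 3-parameter Hill fit gives Einf and AUC25 (area to IC25 normalised by IC25); GRinf comes from a Hill fit of the Hafner normalised growth rate. Biological replicates passing QC are averaged. Single drugs only.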

[7] = tested on: Mycobacterium tuberculosis Erdman (autoluminescent); test: Einf, fitted maximum growth inhibition (fraction); higher = stronger maximal inhibition
Method: as §2

[8] = tested on: Mycobacterium tuberculosis Erdman (autoluminescent); test: GRinf, maximum normalised growth rate inhibition (unitless (-1 to 1)); higher = less effect (negative = killing); remark: listed apart in the source
Method: as §2

O=[N+]([O-])c1cn2c(n1)OC[C@@H](OCc1ccc(OC(F)(F)F)cc1)C2 [pretomanid] + NC(=O)c1cnccn1 [pyrazinamide]
Conditions | AUC25, [5] | Einf, [4] | FIC50, [3] | FIC90, [1] | GRinf, [2]
in vitro model: acidic pH 5.7, time point: constant (~7 days, model-specific) | 0.088 | 0.831 | -0.419 | -0.689 | -0.435
in vitro model: acidic pH 5.7, time point: terminal (~4-5 doublings, model-specific) | 0.0893 | 0.968 | -0.536 | -1.56 | -0.433
in vitro model: intracellular J774, time point: constant = terminal | – | 1 | – | -0.0198 | -0.358

Conditions | AUC25, [5] | Einf, [4] | FIC50, [3] | FIC90, [1] | GRinf, [2]
in vitro model: butyrate, time point: constant (~7 days, model-specific) | 0.115 | 0.869 | -0.24 | 1.15 | 0.144
in vitro model: butyrate, time point: terminal (~4-5 doublings, model-specific) | 0.109 | 0.936 | -0.0126 | 1.79 | 0.0694
in vitro model: cholesterol 0.05 mM, time point: constant (~7 days, model-specific) | 0.137 | 0.752 | – | – | -0.38
in vitro model: cholesterol 0.05 mM, time point: terminal (~4-5 doublings, model-specific) | 0.109 | 0.922 | 0.0466 | – | -0.194
in vitro model: cholesterol-high 0.2 mM, time point: constant (~7 days, model-specific) | 0.0725 | 0.886 | -0.0986 | – | -0.169
in vitro model: cholesterol-high 0.2 mM, time point: terminal (~4-5 doublings, model-specific) | 0.0665 | 0.998 | 0.341 | -0.19 | -0.445
in vitro model: dormancy (butyrate + nitrate, low O2), time point: constant (~7 days, model-specific) | 0.0996 | 0.936 | -0.574 | 0.149 | 0.076
in vitro model: dormancy (butyrate + nitrate, low O2), time point: terminal (~4-5 doublings, model-specific) | 0.0823 | 0.995 | -0.829 | 0.679 | -0.921
in vitro model: standard 7H9 glycerol, time point: constant = terminal | 0.067 | 0.915 | -0.256 | – | 0.0921
in vitro model: valerate, time point: constant (~7 days, model-specific) | 0.093 | 0.833 | 0.0923 | – | 0.163
in vitro model: valerate, time point: terminal (~4-5 doublings, model-specific) | 0.065 | 0.923 | -0.176 | -0.316 | 0.118

NC(=O)c1cnccn1 [pyrazinamide]
Conditions | AUC25, [6] | Einf, [7] | GRinf, [8]
in vitro model: acidic pH 5.7, time point: constant (~7 days, model-specific) | 0.12 | 0.74 | -0.0384
in vitro model: acidic pH 5.7, time point: terminal (~4-5 doublings, model-specific) | 0.124 | 0.881 | 0.0463
in vitro model: intracellular J774, time point: constant = terminal | – | 0.977 | -0.393

Conditions | AUC25, [6] | Einf, [7] | GRinf, [8]
in vitro model: butyrate, time point: constant (~7 days, model-specific) | 0.135 | 0.921 | -1
in vitro model: butyrate, time point: terminal (~4-5 doublings, model-specific) | 0.098 | 0.954 | -1
in vitro model: cholesterol 0.05 mM, time point: constant (~7 days, model-specific) | 0.154 | 0.394 | 0.111
in vitro model: cholesterol 0.05 mM, time point: terminal (~4-5 doublings, model-specific) | 0.142 | 0.803 | 0.0744
in vitro model: cholesterol-high 0.2 mM, time point: constant (~7 days, model-specific) | 0.0952 | 0.765 | -0.0736
in vitro model: cholesterol-high 0.2 mM, time point: terminal (~4-5 doublings, model-specific) | 0.0753 | 0.959 | -0.64
in vitro model: dormancy (butyrate + nitrate, low O2), time point: constant (~7 days, model-specific) | 0.0813 | 0.939 | -0.934
in vitro model: standard 7H9 glycerol, time point: constant = terminal | 0.104 | 0.291 | 0.582
in vitro model: valerate, time point: constant (~7 days, model-specific) | 0.0917 | 0.8 | -0.597
in vitro model: valerate, time point: terminal (~4-5 doublings, model-specific) | 0.0645 | 0.916 | -0.749

NC(=O)c1cnccn1 [pyrazinamide] + CO[C@H]1/C=C/O[C@@]2(C)Oc3c(C)c(O)c4c(O)c(c(/C=N/N5CCN(C6CCCC6)CC5)c(O)c4c3C2=O)NC(=O)/C(C)=C\C=C\[C@H](C)[C@H](O)[C@@H](C)[C@@H](O)[C@@H](C)[C@H](OC(C)=O)[C@@H]1C [rifapentine]
Conditions | AUC25, [5] | Einf, [4] | FIC50, [3] | FIC90, [1] | GRinf, [2]
in vitro model: acidic pH 5.7, time point: constant (~7 days, model-specific) | 0.0839 | 0.93 | -0.598 | – | -0.369
in vitro model: acidic pH 5.7, time point: terminal (~4-5 doublings, model-specific) | 0.0754 | 0.997 | -0.129 | -1.04 | -0.31
in vitro model: intracellular J774, time point: constant = terminal | – | 0.964 | – | -0.235 | -0.243

Conditions | AUC25, [5] | Einf, [4] | FIC50, [3] | FIC90, [1] | GRinf, [2]
in vitro model: butyrate, time point: constant (~7 days, model-specific) | 0.109 | 0.875 | 0.371 | 1.25 | 0.119
in vitro model: butyrate, time point: terminal (~4-5 doublings, model-specific) | 0.0943 | 0.941 | 0.431 | 1 | 0.108
in vitro model: cholesterol 0.05 mM, time point: constant (~7 days, model-specific) | 0.127 | 0.63 | – | – | 0.0214
in vitro model: cholesterol 0.05 mM, time point: terminal (~4-5 doublings, model-specific) | 0.105 | 0.896 | 0.52 | – | -0.284
in vitro model: cholesterol-high 0.2 mM, time point: constant (~7 days, model-specific) | 0.0949 | 0.922 | 0.664 | – | -0.246
in vitro model: cholesterol-high 0.2 mM, time point: terminal (~4-5 doublings, model-specific) | 0.0793 | 1 | 1.19 | 0.905 | -0.711
in vitro model: dormancy (butyrate + nitrate, low O2), time point: constant (~7 days, model-specific) | 0.0917 | 0.902 | -0.609 | 1.09 | 0.258
in vitro model: dormancy (butyrate + nitrate, low O2), time point: terminal (~4-5 doublings, model-specific) | 0.0455 | 0.982 | -0.14 | -0.0574 | -0.142
in vitro model: standard 7H9 glycerol, time point: constant = terminal | 0.0487 | 0.866 | -0.0174 | – | 0.219
in vitro model: valerate, time point: constant (~7 days, model-specific) | 0.0445 | 0.684 | 0.675 | – | 0.299
in vitro model: valerate, time point: terminal (~4-5 doublings, model-specific) | 0.0349 | 0.892 | 0.752 | 0.534 | 0.155
